Data on 3 molecules can be found in patent US20180298344A1, “Realistic Humanized Model of Disease Matrix Environment for Evaluation of Therapeutic Reversal or Cell Fate” (Yale University, priority 2017, published 2018).

Test [1] relates to idiopathic pulmonary fibrosis patients. The note with it: IPF patients; cited from earlier work.
The subject of test [2] is human microvascular pericytes (PC). Description: PC on high stiffness polyacrylamide hydrogels treated with CCG-1423; α-SMA by flow cytometry, F-Actin staining. In kind it is cell-based. The note with it: for detectable quantities of α-SMA: high-stiffness hydrogels, versus naive PC; for detectable quantities of α-SMA / decrease in expression of α-SMA: flow cytometry; for decrease in expression of α-SMA: 1.0 nM. On the procedure: (§1) Human microvascular PC were isolated from a readily available and nearly inexhaustible source, human placental tissue, by microvascular segment explant outgrowth (Sava et al., Microcirculation, 2015, 22:54-67; Ayres-Sander et al., PLoS One, 2013, 8:e60025; Lauridsen et al., FASEB, 2014, 28:1166-1180; Maier et al., Microcirculation, 2010, 17:367-380). Human placental tissue was segmented, digested with collagenase, and the resulting cells were cultured in M199 (Gibco, Grand Island, NY, USA) medium supplemented with 20% FBS (Hyclone Laboratories, Logan, Utah, USA), and 1% penicillin-streptomycin (Gibco). Isolated pericytes were screened by flow cytometry against NG2 (H-300, Santa Cruz Biotechnology), CD90 (K-15, Santa Cruz), CD146 (P1H12, Biolegend, San Diego, Calif., USA), PDGFR-β (18A2, Santa Cruz), α-SMA (1A4, Santa Cruz), SMMHC (N-16, Santa Cruz), CD31 (C20, Santa Cruz), CD34 (581, Sigma) and CD45 (MEM-28, Sigma). As negative control, PC were incubated with isotype matched IgG. Samples were run on a Stratedigm S1000EXi Flow Cytometer (Stratedigm, San Jose, Calif. USA) and analyzed with FlowJo software (Tree Star, Ashland, Oreg., USA).
(§2) Polyacrylamide hydrogels were prepared as previously described (Tse and Engler, Current protocols in cell biology, editorial board, Juan S. Bonifacino et al, 2010, Chapter 10, Unit 10-16). Briefly, amino-silanated coverslips were prepared by treatment with 0.1M NaOH, followed by 3-aminopropyltriethoxysilane (Sigma), and crosslinked with glutaraldehyde. Chloro-silanated coverslips were treated with dichlorodimethylsilane (Sigma). Polyacrylamide solutions of varying stiffness were prepared by altering the concentrations of acrylamide (Bio-Rad, Hercules, Calif., USA) and bis-acrylamide (Bio-Rad). Ammonium persulfate (Sigma) and tetramethylethylenediamine (Bio-Rad) were used as cross-linkers. The solution was placed between the chloro-silanated and amino-silanated coverslips and cross-linked under ambient lighting for 30 minutes, after which the amino-silanated slide, containing the hydrogel, was hydrated in PBS. The ECM components were chemically conjugated to the polyacrylamide hydrogel using the naturally occurring amine residues on the proteins. Sulfa-SANPAH (Thermo Fisher, Grand Island, N.Y., USA) was added in 50 mM 4-(2-hydroxyethyl)-1-piperazineethanesulfonic acid buffer (Sigma) and the hydrogels were placed under UV light (365 nm, 10 mW/cm^2) for 15 minutes, and incubated overnight with either 0.5 mg/mL solubilized healthy or IPF human lung ECM, or isolated ECM proteins (0.1 mg/mL human plasma fibronectin (Millipore, Billerica, Mass., USA) and 0.1 mg/mL collagen I (Sigma). Validation of protein conjugation was performed by tagging ECM with NHS-Fluorescein (5/6-carboxyfluorescein succinimidyl ester), dialyzing overnight, and rinsed extensively (Syed et al., J Vis, Exp, 2015, 97).
(§3) For short term (7 day) differentiation studies, PC (passage 3-7) were seeded on healthy or IPF lung tissue slices, polyacrylamide hydrogels, or 25 mm glass coverslips (VWR) at 100×10^3 cells per sample and activated with control media (non-activated), or 1 ng/mL TGF-β1 (PeproTech, Rocky Hill, N.J., USA) for 7 days (18, 19). For bleomycin activation, the cells were activated with 1 μg/mL bleomycin sulfate (Cayman Chemical, Ann Arbor, Mich.) for 1 day and the media was replaced with non-activated media for the remaining 6 days (Sava et al., Microcirculation, 2015, 22:54-67; Sterling et al., J Bio Chem, 1983, 258:14438-14444). […]

Another test concerns fibrosis in mouse models. The note with it: in vivo mouse models; cited from earlier work.
The subject of test [3] is human microvascular pericytes (PC). Put plainly: Short term (7 day) myofibroblast differentiation of PC on low, medium, high stiffness hydrogels with TGF-β1 or bleomycin activation. In kind it is cell-based. The note with it: 7 days. On the procedure:
as §1, §2
as §3, with “258:14438-14444). TGF-β1 and bleomycin concentrations were based on reports consistent with activation of fibroblasts (Sava et al., Microcirculation, 2015, 22:54-67; Maroni and Davis, Bio Reprod, 2012, 87:127). Treatment with CCG-1423 (Sigma) was performed at day 0 for the full 7 days, and labeled as early treatment, or at day 7 and performed for 7 days, and labeled as late treatment.” for “258:14438-14444).”

Setting [4] is: low, medium, high stiffness hydrogels with fibronectin and collagen I, TGF-β1 1 ng/mL 7 days or bleomycin 1 μg/mL 1 day, flow cytometry.

On to `Cc1ccc(=O)n(-c2ccccc2)c1` [pirfenidone], for which the “decline in forced vital capacity” value in test [1] is recorded as “reducing the decline in forced vital capacity”.

`CC(ONC(=O)c1cc(C(F)(F)F)cc(C(F)(F)F)c1)C(=O)Nc1ccc(Cl)cc1` (stereo not shown) [CCG-1423]: the “detectable quantities of α-SMA” value in test [2] (CCG-1423 treatment at day 0 of PC culture, P<0.001) was “significantly reduced”; in test [2] (CCG-1423 treatment at day 7 of PC culture, P=0.039), “significantly reduced”. In addition, the “cell F-Actin architecture” value in test [2] (F-Actin staining, high stiffness hydrogel) was “did not alter”. Further, the “decrease in expression of α-SMA” value in test [2] (early time-point (day 0) treatment for 7 days, high stiffness hydrogel) is listed as 38.2±4.2%; in test [2] (late time point (day 7) treatment for additional 7 days, high stiffness hydrogel), 20.4±8.0%. In the test on fibrosis in mouse models, the prevention of fibrosis entry is “effective in preventing fibrosis”.

Take bleomycin sulfate: in test [3] (setting [4]), the “vimentin expression compared to non-activated PC on substrates of the same stiffness” value is reported as “significantly increased” and the “α-SMA expression compared to non-activated PC on substrates of the same stiffness” value was “significantly increased”. The “cell area and elongation (aspect ratio)” value in test [3] (medium and high stiffness substrates) is “largest area and elongation”.
